Experimental data from article PMC12332157, “A preclinical study on the influence of linkers in [^68Ga]Ga-NOTA-X-RM26 radiotracers for PET imaging of GRPR expression” (EJNMMI Research, 2025).
Read-outs that look alike come from different tables or passages of the source. Starred links: 1 amine or outer side, 2 acyl side, 3 side chain; linkers in the order of their positions; H or OH if unused. Non-standard residues stand in square brackets, D forms with d. Residues, ends and D or L forms follow the SMILES beside them. *: point of attachment. NOTA = O=C(O)CN1CCN(CC(=O)O)CCN(CC(=O)*)CC1; Sta = CC(C)C[C@H](N)[C@@H](O)CC(=O)O; X2 = O=C(COc1cccc(CN[*:1])c1)[*:2]; X1 = O=C(Cc1ccccc1CCN[*:1])[*:2]

Legend:
[1] = set-up: method as in PMID 25684649; conditions: same time point (2 h), 40 pmol; cited from earlier work
[2] = Octanol-water distribution coefficient (LogD); assay type: physicochemical; conditions: n-octanol/PBS; n = 3; mean ± sd
Method: Octanol-water distribution coefficient (LogD) was determined by adding 10 pmol of radiopeptide to an Eppendorf tube containing 500 µL of phosphate-buffered saline (PBS) and 500 µL of n-octanol. Each tube was vortexed for 2 min and centrifuged at 6000 g for 5 min. Three 100 µL fractions were collected from each phase, and their radioactivity was measured.

[3] = Complex stability of 68Ga-labeled peptides in PBS or EDTA solution in PBS (iTLC); assay type: physicochemical; conditions: n = 3, mean ± sd; for remaining at 1 h, 1 µM: PBS buffer, pH 7.4, incubation at 37 °C for 1 h in PBS; for Stability in PBS with EDTA: incubation at 37 °C for 1 h in PBS with 1000-fold molar excess of EDTA, in % (unit assumed)
[4] = Biodistribution in BALB/c nu/nu mice bearing PC-3 xenografts; assay type: in vivo; conditions: female, BALB/c nu/nu, mouse, iv, total radioactivity
Method: Female BALB/c nu/nu mice of 18–22 g weight were used in the study. All procedures with animals were conducted in accordance with the EU Directive 2010/63/EU for animal experiments and Swedish national legislation concerning the protection of laboratory animals. The experiments were approved by the ethics committee for animal research in Uppsala (Sweden) with permit number 5.8.18–00473/2021. Animals were housed in individually ventilated cages, under a 12-h light/dark cycle with free access to food and water.
For tumor inoculation, 8·10^6 PC-3 cells in 100 µL PBS were injected subcutaneously into the right hind leg of mice. Mouse weight and tumor size were measured every 2–3 days, and tumor volume was estimated by ellipsoid approximation. A predefined humane endpoint of the experiment was either a 15% weight loss or a tumor volume of 1000 mm^3, neither of which was reached.
Four weeks after tumor cell implantation, mice were randomized and divided into 6 groups (4 animals / group): 3 of them received treatment with ^68Ga-radiolabeled peptides, while the other 3 received the same peptides in addition to 5 nmol of non-labeled NOTA-PEG2-RM26 peptide for GRPR-blocking. Peptides were injected intravenously via the tail veins at a dose of 50 pmol (700 kBq radioactivity dose).
At 2 h post injection, mice were sacrificed by overdose of Ketamine/Xylazine anesthesia, and blood was collected by heart puncture. Then, liver, spleen, lungs, pancreas, kidneys, small intestine, stomach, tail, femur bones, tumor and muscle from the opposite legs were collected, weighed, and radioactivity was measured using a Wizard 2480 gamma counter. Data are presented as percentages of injected activity per gram of tissue (%IA/g).

[5] = blood, 50 pmol, 2 h p.i., i.v., read-out: Radionuclide concentration, Blood
[6] = blood, Blockade (co-injection of NOTA-PEG2-RM26), 2 h, read-out: Radionuclide concentration, Blood
[7] = bone, 50 pmol, 2 h p.i., i.v., read-out: Radionuclide concentration, Bone
[8] = bone, Blockade (co-injection of NOTA-PEG2-RM26), 2 h, read-out: Radionuclide concentration, Bone
[9] = carcass, 50 pmol, 2 h p.i., i.v., read-out: Radionuclide quantity, Carcass
[10] = carcass, Blockade (co-injection of NOTA-PEG2-RM26), 2 h, read-out: Radionuclide quantity, Carcass
[11] = gastrointestinal tract, 50 pmol, 2 h p.i., i.v., read-out: Radionuclide quantity, Gastrointestinal tract
[12] = gastrointestinal tract, Blockade (co-injection of NOTA-PEG2-RM26), 2 h, read-out: Radionuclide quantity, Gastrointestinal tract
[13] = kidneys, 50 pmol, 2 h p.i., i.v., read-out: Radionuclide concentration, Kidneys
[14] = kidneys, Blockade (co-injection of NOTA-PEG2-RM26), 2 h, read-out: Radionuclide concentration, Kidneys
[15] = liver, 50 pmol, 2 h p.i., i.v., read-out: Radionuclide concentration, Liver
[16] = liver, Blockade (co-injection of NOTA-PEG2-RM26), 2 h, read-out: Radionuclide concentration, Liver
[17] = lungs, 50 pmol, 2 h p.i., i.v., read-out: Radionuclide concentration, Lungs
[18] = lungs, Blockade (co-injection of NOTA-PEG2-RM26), 2 h, read-out: Radionuclide concentration, Lungs
[19] = muscle, 50 pmol, 2 h p.i., i.v., read-out: Radionuclide concentration, Muscle
[20] = muscle, Blockade (co-injection of NOTA-PEG2-RM26), 2 h, read-out: Radionuclide concentration, Muscle
[21] = pancreas, 50 pmol, 2 h p.i., i.v., read-out: Radionuclide concentration, Pancreas
[22] = pancreas, Blockade (co-injection of NOTA-PEG2-RM26), 2 h, read-out: Radionuclide concentration, Pancreas
[23] = small intestine, 50 pmol, 2 h p.i., i.v., read-out: Radionuclide concentration, Small Intestines
[24] = small intestine, Blockade (co-injection of NOTA-PEG2-RM26), 2 h, read-out: Radionuclide concentration, Small Intestines
[25] = spleen, 50 pmol, 2 h p.i., i.v., read-out: Radionuclide concentration, Spleen
[26] = spleen, Blockade (co-injection of NOTA-PEG2-RM26), 2 h, read-out: Radionuclide concentration, Spleen
[27] = stomach, 50 pmol, 2 h p.i., i.v., read-out: Radionuclide concentration, Stomach
[28] = stomach, Blockade (co-injection of NOTA-PEG2-RM26), 2 h, read-out: Radionuclide concentration, Stomach
[29] = total (sum of the measured activities), 50 pmol, 2 h p.i., i.v., sum of the measured activities, read-out: Radionuclide quantity, Total
[30] = total, Blockade (co-injection of NOTA-PEG2-RM26), 2 h, read-out: Radionuclide quantity, Total
[31] = tumor (PC-3 xenograft), 50 pmol, 2 h p.i., i.v., PC-3 xenograft, read-out: Radionuclide concentration, Tumor
[32] = tumor (PC-3 xenograft), Blockade (co-injection of NOTA-PEG2-RM26), 2 h, read-out: Radionuclide concentration, Tumor

logD [2] | remaining at 1 h, 1 µM [3] | Stability in PBS with EDTA [3] | tissue uptake at 2 h [4, 5] | tissue uptake at 2 h [4, 6] | tissue uptake at 2 h [4, 7] | tissue uptake at 2 h [4, 8] | tissue uptake dose at 2 h [4, 9] | tissue uptake dose at 2 h [4, 10] | tissue uptake dose at 2 h [4, 11] | tissue uptake dose at 2 h [4, 12] | tissue uptake at 2 h [4, 13] | tissue uptake at 2 h [4, 14] | tissue uptake at 2 h [4, 15] | tissue uptake at 2 h [4, 16] | tissue uptake at 2 h [4, 17] | tissue uptake at 2 h [4, 18] | tissue uptake at 2 h [4, 19] | tissue uptake at 2 h [4, 20] | tissue uptake at 2 h [4, 21] | Structure (SMILES) | other results
-1.43 ± 0.01 |  |  |  |  |  |  |  |  |  |  |  |  |  |  |  |  |  |  |  | CC(C)C[C@H](NC(=O)C[C@H](O)[C@H](CC(C)C)NC(=O)[C@H](Cc1c[nH]cn1)NC(=O)CNC(=O)[C@@H](NC(=O)[C@H](C)NC(=O)[C@H](Cc1c[nH]c2ccccc12)NC(=O)[C@H](CCC(N)=O)NC(=O)[C@@H](Cc1ccccc1)NC(=O)COCCOCCNC(=O)CN1CCN(CC(=O)O)CCN(CC(=O)O)CC1)C(C)C)C(N)=O [[^68Ga]Ga-NOTA-PEG2-RM26, metal not drawn] | accumulation in the kidneys [1]: 1.9 ± 0.3 %IA/g; accumulation in the liver [1]: 1 ± 0.1 %IA/g; accumulation in the lungs [1]: 0.17 ± 0.03 %IA/g; tissue uptake, pancreas [1]: 1.9 ± 0.1 %IA/g; tissue uptake, small intestine [1]: 0.6 ± 0.1 %IA/g; tissue uptake, stomach [1]: 1.4 ± 0.2 %IA/g; tissue uptake, tumor [1]: 5.4 ± 1 %IA/g
-1.21 ± 0.03 | 92.8 ± 3.3% | 90.6 ± 4.1 | 0.39 ± 0.08 %ID/g | 0.42 ± 0.21 %ID/g | 0.28 ± 0.06 %ID/g | 0.25 ± 0.03 %ID/g | 2.8 ± 0.4 %ID | 4.6 ± 0.7 %ID | 4 ± 0.4 %ID | 3.1 ± 1.7 %ID | 8.4 ± 1.4 %ID/g | 7.6 ± 0.7 %ID/g | 3.7 ± 1.4 %ID/g | 2.2 ± 0.5 %ID/g | 7.1 ± 4.2 %ID/g | 3.4 ± 0.5 %ID/g | 0.12 ± 0.02 %ID/g | 0.12 ± 0.05 %ID/g | 10.5 ± 3.8 %ID/g | CC(=O)N[C@@H](CCCCNC(=O)CN1CCN(CC(=O)O)CCN(CC(=O)O)CC1)C(=O)NCc1cccc(OCC(=O)N[C@H](Cc2ccccc2)C(=O)N[C@@H](CCC(N)=O)C(=O)N[C@@H](Cc2c[nH]c3ccccc23)C(=O)N[C@@H](C)C(=O)N[C@H](C(=O)NCC(=O)N[C@@H](Cc2c[nH]cn2)C(=O)N[C@@H](CC(C)C)[C@@H](O)CC(=O)N[C@@H](CC(C)C)C(N)=O)C(C)C)c1 [[^68Ga]Ga-NOTA-mMA-RM26, metal not drawn] (Ac-K(NOTA)[X2][dF]QWAVGH[Sta]L-NH2) | tissue uptake at 2 h [4, 22]: 1.7 ± 0.9 %ID/g; tissue uptake at 2 h [4, 23]: 1.7 ± 0.7 %ID/g; tissue uptake at 2 h [4, 24]: 0.91 ± 0.48 %ID/g; tissue uptake at 2 h [4, 25]: 1.1 ± 0.4 %ID/g; tissue uptake at 2 h [4, 26]: 1.1 ± 0.8 %ID/g; tissue uptake at 2 h [4, 27]: 2.5 ± 0.6 %ID/g; tissue uptake at 2 h [4, 28]: 0.77 ± 0.51 %ID/g; tissue uptake dose at 2 h [4, 29]: 16.5 ± 3.1 %ID; tissue uptake dose at 2 h [4, 30]: 12.6 ± 2 %ID; tissue uptake at 2 h [4, 31]: 12.3 ± 2.8 %ID/g; tissue uptake at 2 h [4, 32]: 1.8 ± 0.2 %ID/g
-0.97 ± 0.01 | 95 ± 2.9% | 92.6 ± 4.7 | 0.54 ± 0.01 %ID/g | 0.31 ± 0.04 %ID/g | 0.44 ± 0.04 %ID/g | 0.33 ± 0.07 %ID/g | 4.1 ± 1.1 %ID | 3.1 ± 1.8 %ID | 5.9 ± 0.5 %ID | 3.5 ± 0.7 %ID | 5.9 ± 0.6 %ID/g | 3.3 ± 2.3 %ID/g | 1.9 ± 0.2 %ID/g | 1.3 ± 0.1 %ID/g | 0.45 ± 0.27 %ID/g | 0.37 ± 0.02 %ID/g | 0.15 ± 0.01 %ID/g | 0.15 ± 0.13 %ID/g | 11.7 ± 2.4 %ID/g | CC(=O)N[C@@H](CCCCNC(=O)CN1CCN(CC(=O)O)CCN(CC(=O)O)CC1)C(=O)NCCc1ccccc1CC(=O)N[C@H](Cc1ccccc1)C(=O)N[C@@H](CCC(N)=O)C(=O)N[C@@H](Cc1c[nH]c2ccccc12)C(=O)N[C@@H](C)C(=O)N[C@H](C(=O)NCC(=O)N[C@@H](Cc1c[nH]cn1)C(=O)N[C@@H](CC(C)C)[C@@H](O)CC(=O)N[C@@H](CC(C)C)C(N)=O)C(C)C [[^68Ga]Ga-NOTA-oET-RM26, metal not drawn] (Ac-K(NOTA)[X1][dF]QWAVGH[Sta]L-NH2) | tissue uptake at 2 h [4, 22]: 1.2 ± 0.2 %ID/g; tissue uptake at 2 h [4, 23]: 2.4 ± 0.4 %ID/g; tissue uptake at 2 h [4, 24]: 0.33 ± 0.24 %ID/g; tissue uptake at 2 h [4, 25]: 0.46 ± 0.06 %ID/g; tissue uptake at 2 h [4, 26]: 0.28 ± 0.07 %ID/g; tissue uptake at 2 h [4, 27]: 2.6 ± 0.6 %ID/g; tissue uptake at 2 h [4, 28]: 0.55 ± 0.19 %ID/g; tissue uptake dose at 2 h [4, 29]: 16.3 ± 1.6 %ID; tissue uptake dose at 2 h [4, 30]: 8.5 ± 3 %ID; tissue uptake at 2 h [4, 31]: 11.2 ± 3.4 %ID/g; tissue uptake at 2 h [4, 32]: 1.3 ± 0.2 %ID/g
